In US10590086B2, “Pharmaceutical compound” (IOmet Pharma Ltd., priority 2014, dated 2020):

Columns and labels:
TDO = TDO (Homo sapiens, UniProt P48775); assay: A172 kynurenine cell-based assay; design: This assay utilised cancer cells which expressed either TDO or IDO; endogenous in cells; host or cells: A172 (human glioblastoma); conditions: A172 human glioblastoma cells, 48 hours, 500 μM L-tryptophan; read-out: A172 Kynurenine cell based assay pIC50 (converted)
Experimental: (§1) Exemplary compounds of the invention were prepared, and tested to determine their effect as TDO and/or IDO inhibitors. Two different assays were employed: 1. a cell-based assay for detecting the effect of test compounds on kynurenine production in two different cancer cell types. This assay utilised cancer cells which expressed either TDO or IDO and as such was used as a means of testing compound activity at these two enzymes in a cell-based context. 2. a TDO and IDO biochemical coupled assay which utilised recombinantly produced and purified TDO and IDO enzymes in combination with the enzyme formamidase. This coupled enzyme system allowed conversion of N-formylkynurenine produced by TDO or IDO activity to kynurenine which was then quantified by fluorescence following addition of Erhlich's Reagent The protocols for these are set out below.
(§2) Cell Based Assay for Detection of Kynurenine Produced by TDO and/or IDO
(§3) A172 (human glioblastoma) and SKOV3 (human ovarian adenocarcinoma) cells were seeded in a 96 well plate at 30,000 or 40,000 cells per well respectively in phenol red-free RPMI supplemented with 10% FCS, 2 mM L-glutamine and 500 μM L-tryptophan. IDO expression was induced in the SKOV3 cells by the addition of 500 ng/ml IFN-γ. Cells were incubated at 37° C. with or without the addition of test compound. After 48 hours, the cells were removed by centrifugation and Erhlich's reagent was added to the supernatant. The Erhlich's reagent was incubated for 5 minutes before the absorbance was read at 490 nm.

IDO [1] = biological target: T1, IDO (Homo sapiens, UniProt P14902); assay: SKOV3 kynurenine cell-based assay (IDO induced by IFN-γ); design: IDO expression was induced in the SKOV3 cells by the addition of 500 ng/ml IFN-γ; endogenous in cells; host or cells: SKOV3 (human ovarian adenocarcinoma), induced with IFN-γ; conditions: SKOV3 human ovarian adenocarcinoma cells, 500 ng/ml IFN-γ, 48 hours, 500 μM L-tryptophan; read-out: SKOV3 Kynurenine cell based assay pIC50 (converted)
T1 sequence (P14902 whole entry): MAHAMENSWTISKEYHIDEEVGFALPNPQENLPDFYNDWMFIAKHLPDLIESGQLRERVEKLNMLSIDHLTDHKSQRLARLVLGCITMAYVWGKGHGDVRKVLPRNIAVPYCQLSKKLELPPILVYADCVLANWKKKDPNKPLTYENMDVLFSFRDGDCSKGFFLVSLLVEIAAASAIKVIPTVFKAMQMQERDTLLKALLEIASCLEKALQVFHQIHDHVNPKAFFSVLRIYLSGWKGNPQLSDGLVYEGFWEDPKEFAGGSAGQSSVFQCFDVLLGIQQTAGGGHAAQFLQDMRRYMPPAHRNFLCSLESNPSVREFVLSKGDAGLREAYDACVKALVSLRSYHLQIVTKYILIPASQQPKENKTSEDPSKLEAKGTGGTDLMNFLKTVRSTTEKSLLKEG
Experimental: as §1, §2, §3

IDO [2] = biological target: T1, IDO; assay: hIDO biochemical coupled assay; conditions: 45 μM L-tryptophan, 17 minutes, room temperature; read-out: hIDO biochemical assay pIC50 (converted)

TDO, sequence (P48775 whole entry): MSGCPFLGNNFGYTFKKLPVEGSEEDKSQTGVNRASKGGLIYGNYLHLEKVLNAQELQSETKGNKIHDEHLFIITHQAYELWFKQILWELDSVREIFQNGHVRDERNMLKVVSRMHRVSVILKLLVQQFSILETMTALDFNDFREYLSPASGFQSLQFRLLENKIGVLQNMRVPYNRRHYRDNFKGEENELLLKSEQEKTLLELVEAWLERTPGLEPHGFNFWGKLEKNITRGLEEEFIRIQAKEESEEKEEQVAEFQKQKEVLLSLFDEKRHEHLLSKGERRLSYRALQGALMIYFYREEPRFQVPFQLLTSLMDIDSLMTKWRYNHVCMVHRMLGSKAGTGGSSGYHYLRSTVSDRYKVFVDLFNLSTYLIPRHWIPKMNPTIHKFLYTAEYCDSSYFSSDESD

IC50 (TDO) [µM]	IC50 (IDO [1]) [µM]	IC50 (IDO [2]) [µM]	SMILES
32.4 to 100	32.4 to 100	> 100	CC(C)NC(=O)c1cc(Cl)cc2[nH]ncc12 [Compound 236]
3.24 to 31.6	32.4 to 100	3.24 to 31.6	CC(C)c1cc(C2CCN(S(C)(=O)=O)CC2)c2cn[nH]c2c1 [Compound 223]
< 3.16	32.4 to 100	32.4 to 100	O=C1NC2(CCO1)CCN(c1cc(Cl)cc3[nH]ncc13)CC2 [Compound 224]
> 100	3.24 to 31.6	> 100	O=C(NCC1CCCCC1)c1cc(Cl)cc2[nH]ncc12 [Compound 258]
3.24 to 31.6	3.24 to 31.6	> 100	CNc1ccc(-c2cc(Cl)cc3[nH]ncc23)cn1 [Compound 241]
< 3.16	3.24 to 31.6	> 100	Clc1cc(N2CCC(c3ncc[nH]3)CC2)c2cn[nH]c2c1 [Compound 235]
< 3.16	3.24 to 31.6	> 100	CS(=O)(=O)Nc1ccc(-c2cc(Cl)cc3[nH]ncc23)cc1 [Compound 220]
32.4 to 100	32.4 to 100	> 100	CC(=O)N1CCC(c2cc(OC(F)(F)F)cc3[nH]ncc23)CC1 [Compound 275]
< 3.16	3.24 to 31.6	32.4 to 100	Cc1cc(-c2cc(Cl)cc3[nH]ncc23)ccc1S(C)(=O)=O [Compound 254]
< 3.16	3.24 to 31.6	> 100	COC(=O)c1ccc(-c2cc(Cl)cc3[nH]ncc23)cc1 [Compound 240]
< 3.16	3.24 to 31.6	32.4 to 100	CC(=O)N1CC2CCC1CN2c1cc(Cl)cc2[nH]ncc12 (stereo not shown) [Compound 233]
32.4 to 100	> 100	> 100	CCNC(=O)c1cc(Cl)cc2[nH]ncc12 [Compound 261]
3.24 to 31.6	3.24 to 31.6	3.24 to 31.6	CN(C)C(=O)C1CCN(c2cc(Cl)cc3[nH]ncc23)C1 (stereo not shown) [Compound 263]
3.24 to 31.6	3.24 to 31.6	3.24 to 31.6	CN(C)C(=O)C1CCN(c2cc(Cl)cc3[nH]ncc23)CC1 [Compound 225]
3.24 to 31.6	32.4 to 100	> 100	CS(=O)(=O)N1CCN(c2cc(OC(F)(F)F)cc3[nH]ncc23)CC1 [Compound 221]
< 3.16	3.24 to 31.6	> 100	CS(=O)(=O)NCc1ccc(-c2cc(Cl)cc3[nH]ncc23)cc1 [Compound 292]
< 3.16	3.24 to 31.6	32.4 to 100	CN(C1CCN(c2cc(Cl)cc3[nH]ncc23)C1)S(C)(=O)=O (stereo not shown) [Compound 243]
3.24 to 31.6	32.4 to 100	> 100	O=C(c1cc(Cl)cc2[nH]ncc12)N1CCCCC1 [Compound 274]
3.24 to 31.6	3.24 to 31.6	> 100	COc1cc(-c2cc(Cl)cc3[nH]ncc23)ccc1S(C)(=O)=O [Compound 296]
< 3.16	3.24 to 31.6	> 100	CC(=O)NCc1ccc(-c2cc(Cl)cc3[nH]ncc23)cc1 [Compound 276]

IC50 (TDO) [µM]	IC50 (IDO [1]) [µM]	IC50 (IDO [2]) [µM]	SMILES
< 3.16	> 100	> 100	O=C(O)c1ccc(-c2cc(Cl)cc3[nH]ncc23)cc1 [Compound 253]
< 3.16	3.24 to 31.6	3.24 to 31.6	CC(=O)NCC1CCN(c2cc(Cl)cc3[nH]ncc23)CC1 [Compound 270]
3.24 to 31.6	32.4 to 100	3.24 to 31.6	CC(=O)N1CCC(c2cc(C(C)C)cc3[nH]ncc23)CC1 [Compound 222]
> 100	3.24 to 31.6	> 100	CC(C)COc1cccc2[nH]ncc12 [Compound 262]
3.24 to 31.6	32.4 to 100	> 100	CS(=O)(=O)NC1CCCN(c2cc(Cl)cc3[nH]ncc23)C1 (stereo not shown) [Compound 229]
< 3.16	3.24 to 31.6		CS(=O)(=O)N1CCC(c2cc(C3CC3)cc3[nH]ncc23)CC1 [Compound 87]
< 3.16	3.24 to 31.6		CCC(=O)N1CCC(c2cc(Cl)cc3[nH]ncc23)CC1 [Compound 170]
< 3.16	< 3.16		CCc1cc(N2CCN(S(C)(=O)=O)C(C)(C)C2)c2cn[nH]c2c1 [Compound 161]
> 100	3.24 to 31.6		CS(=O)(=O)N1CCN(c2cc(C(F)(F)F)cc3[nH]ncc23)c2ccccc21 [Compound 186]
< 3.16	3.24 to 31.6		CC(C)c1cc(N2CCN(S(C)(=O)=O)C(C)(C)C2)c2cn[nH]c2c1 [Compound 145]
< 3.16	3.24 to 31.6		CN(CC1CCN(c2cc(Cl)cc3[nH]ncc23)CC1)S(C)(=O)=O [Compound 130]
3.24 to 31.6	> 100		CC(=O)N1CCN(c2cc(C(C)C)cc3[nH]ncc23)CC1 [Compound 68]
< 3.16	3.24 to 31.6		CC(C)C(=O)N1CCN(c2cc(Cl)cc3[nH]ncc23)CC1 [Compound 108]
< 3.16	3.24 to 31.6		CC1(C)CC(c2cc(Cl)cc3[nH]ncc23)CCN1S(C)(=O)=O (stereo not shown) [Compound 175]
< 3.16	3.24 to 31.6		CC(=O)N1CCN(c2cc(Br)cc3[nH]ncc23)CC1 [Compound 76]
3.24 to 31.6	> 100		OCCc1cc(Cl)cc2[nH]ncc12 [Compound 152]
< 3.16	3.24 to 31.6		NC(=O)N1CCC(c2cc(Cl)cc3[nH]ncc23)CC1 [Compound 168]
< 3.16	3.24 to 31.6		CNC(=O)N1CCN(c2cc(Cl)cc3[nH]ncc23)CC1 [Compound 80]
> 100	32.4 to 100		Cn1ncc2c(N3CCN(S(C)(=O)=O)C(C)(C)C3)cc(Cl)cc21 [Compound 105]
< 3.16	3.24 to 31.6		CC(=O)N1CCC(c2cccc3[nH]ncc23)CC1(C)C (stereo not shown) [Compound 190]

IC50 (TDO) [µM]	IC50 (IDO [1]) [µM]	IC50 (IDO [2]) [µM]	SMILES
3.24 to 31.6	3.24 to 31.6		CCc1cc(N2CCN(S(C)(=O)=O)CC2)c2cn[nH]c2c1 [Compound 158]
32.4 to 100	> 100		CN(CCNc1cccc2[nH]ncc12)S(C)(=O)=O [Compound 62]
< 3.16	3.24 to 31.6		CN1C(=O)NC(=O)C12CCN(c1cc(Cl)cc3[nH]ncc13)CC2 [Compound 184]
< 3.16	3.24 to 31.6		C[C@@H]1CN(c2cc(Cl)cc3[nH]ncc23)C[C@@H](C)N1S(C)(=O)=O [Compound 102]
< 3.16	3.24 to 31.6		CCC(=O)N1CCN(c2cc(Cl)cc3[nH]ncc23)CC1 [Compound 109]
3.24 to 31.6	32.4 to 100		CC1(C)CN(c2cc(C3CCCC3)cc3[nH]ncc23)CCN1S(C)(=O)=O [Compound 148]
< 3.16	< 3.16		CC(=O)N1CCC(c2cc(C(F)(F)F)cc3[nH]ncc23)CC1(C)C (stereo not shown) [Compound 133]
< 3.16	3.24 to 31.6		O=C(CO)N1CCC(c2cc(Cl)cc3[nH]ncc23)CC1 [Compound 167]
< 3.16	3.24 to 31.6		CC(=O)N1CCN(c2cc(Cl)cc3[nH]ncc23)CC12CC2 [Compound 93]
< 3.16	3.24 to 31.6		CS(=O)(=O)N1CCC(O)(c2cc(Cl)cc3[nH]ncc23)CC1 [Compound 123]
32.4 to 100	32.4 to 100		c1ccc(CCNc2cccc3[nH]ncc23)cc1 [Compound 50]
< 3.16	3.24 to 31.6		CC(=O)N1CCC(Oc2cc(Cl)cc3[nH]ncc23)CC1 [Compound 160]
3.24 to 31.6	32.4 to 100		CC(=O)N1CCN(c2cccc3[nH]ncc23)CC1C (stereo not shown) [Compound 27]
> 100	32.4 to 100		COCCn1ncc2c(OC3CCN(S(C)(=O)=O)CC3)cc(Cl)cc21 [Compound 162]
3.24 to 31.6	32.4 to 100		OCCOc1cc(Cl)cc2[nH]ncc12 [Compound 85]
32.4 to 100	> 100		CC(=O)N1CCN(c2cc(C3CCCC3)cc3[nH]ncc23)CC1 [Compound 139]
< 3.16	> 100		CC(C)(O)C(=O)N1CCC(c2cc(Cl)cc3[nH]ncc23)CC1 [Compound 191]
< 3.16	3.24 to 31.6		CC1(C)CN(c2cc(C3CC3)cc3[nH]ncc23)CCN1S(C)(=O)=O [Compound 127]
< 3.16	3.24 to 31.6		CN(C1CCN(c2cc(Cl)cc3[nH]ncc23)CC1)S(C)(=O)=O [Compound 117]

SMILES	IC50 (TDO) [µM]	IC50 (IDO [1]) [µM]	IC50 (IDO [2]) [µM]
CN1CCN(c2cc(Cl)cc3[nH]ncc23)CC1 [Compound 95]	3.24 to 31.6	> 100	
